Consider 8 compounds from US10232012B2 (INDUSTRY-ACADEMIC COOPERATION FOUNDATION, YONSEI UNIVERSITY, priority 2016, dated 2019).

Broadly, the viability is a per cent measure of how many cells are alive, often set against a control.

The target of one data set is PrP^SC in ScN2a cells (Mus musculus, UniProt P04925). It is filed as cell-based. The note with it: for anti-prion activity at 30 nM: pH 7.4.
The nature of another data set: in vitro. The conditions noted are these: mouse, ScN2a cells, pH 7.4, cell survival rate.
The format of data set [1] is physicochemical. The note with it: pH 3.
The format of data set [2] is physicochemical.

Where two headings read alike, the source gives them in different places. Ends that are not written are not given here. A value given as a limit tells only on which side of the number the result lay.

Sequence of PrP^SC in ScN2a cells (P04925 23-230 limits assumed): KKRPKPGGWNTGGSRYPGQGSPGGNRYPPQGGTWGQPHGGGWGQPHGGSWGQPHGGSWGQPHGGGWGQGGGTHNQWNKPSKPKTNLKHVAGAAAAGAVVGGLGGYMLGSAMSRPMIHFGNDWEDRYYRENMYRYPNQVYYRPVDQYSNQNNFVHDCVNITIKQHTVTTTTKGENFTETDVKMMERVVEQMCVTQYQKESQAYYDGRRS

Turning to H-RR-ahx-FKFEFKFEFKFE-NH2 [Example 2], the “anti-prion activity (PK-resistant PrP^SC level by western blot)” value on PrP^SC in ScN2a cells is on record as “shows anti-prion activity, although weaker than that of the fusion peptide of Example 1”.
With “H-RRRRRRRRRRRRRR-GSGG-FKFEFKFEFKFE-NH2 [Example 4]”, the “anti-prion activity at 30 nM” value on PrP^SC in ScN2a cells is “remarkably high anti-prion activity”.
The compound “RRRRRRRRRRRRGSGGFKFEFKFEFKFE-NH2 [Example 3]” returned a viability in the data set “in vitro” of at least 70%. Further, in data set [1], the “diameter of vesicular nanostructure” value is on record as 20-90 nm; the “height of vesicular nanostructure, on average” value is listed as 1-20 nm; the “height of vesicular nanostructure, specifically” value is recorded as 8-16 nm; the “width of vesicular nanostructure, on average” value was 50-100 nm. Also, the “width of vesicular nanostructure, specifically” value in data set [1] is listed as 70-90 nm. Also, on PrP^SC in ScN2a cells, the “anti-prion activity (PK-resistant PrP^SC level by western blot)” value is given as “remarkably higher anti-prion activity than the peptide consisting only of arginine residues of the same number (R12)”, the “anti-prion activity at 10 nM” value is “remarkably superior anti-prion activity” and the “fold decrease of anti-prion activity compared to R12-β UNS” value is listed as at least 14.5 times. In addition, in the data set with ScN2a cells, the cytotoxicity result was “significantly lower toxicity than the peptide of Comparative Example 3”. In addition, the “zeta potential difference, acidic condition (pH 2-5.5) versus neutral condition” value in data set [2] (pH 2) is “+14 to 18 mV”. Further, in data set [2] (pH 3), the zeta potential entry is “+40 mV”. Moreover, the zeta potential entry in data set [2] (pH 5) is reported as “+38 mV”. Moreover, in data set [2] (pH 7), the zeta potential result is “+24 mV”. Besides, the zeta potential entry in data set [2] (pH 11) is on record as “+30 mV”.
Consider `N=C(N)NCCC[C@H](NC(=O)CNC(=O)CCCCCN)C(=O)N[C@@H](CCCCN)C(=O)N[C@@H](CCCCN)C(=O)N[C@@H](CCCNC(=N)N)C(=O)N[C@@H](CCCNC(=N)N)C(=O)N[C@@H](CCC(N)=O)C(=O)N[C@@H](CCCNC(=N)N)C(=O)N[C@@H](CCCNC(=N)N)C(=O)N[C@@H](CCCNC(=N)N)C(=O)N1CCC[C@H]1C(=O)N1CCC[C@H]1C(=O)N[C@@H](CCC(N)=O)C(N)=O` [Comparative Example 1, reference compound], for which, in the data set with ScN2a cells, the cytotoxicity result is given as “remarkably low cytotoxicity”.
As for “RRRRRRRRRRRRGSGGFKFEFKFEFKFE-NH2 [R12-β SPN]”, on PrP^SC in ScN2a cells, the “anti-prion activity (PK-resistant PrP^SC level by western blot)” value is on record as “comparable to that of the peptide of Example 1”. Moreover, the cytotoxicity result in the data set with ScN2a cells is on record as “moderate cytotoxicity”.
As for “RRRRRRRRRRRRGSGGFKFEFKFEFKFE-NH2 [R12-β UNS]”, at PrP^SC in ScN2a cells, the “anti-prion activity (PK-resistant PrP^SC level by western blot)” value is “comparable to that of the peptide Comparative Example 3” and the “fold higher anti-prion activity than R12-β SPN (fibrillar nanostructure)” value was 14.5 times. In addition, the “cytotoxicity at 10 μM” value in the data set on ScN2a cells (pH 7.4) was “low toxicity”.
Regarding “H-RRRRRRRRRRRRRRR-GSGG-FKFEFKFEFKFE-NH2 [Example 5]”, on PrP^SC in ScN2a cells, the “anti-prion activity at 30 nM” value is on record as “remarkably high anti-prion activity”.
For the compound “H-GRKKRRQRRRPPQ-GSGG-FKFEFKFEFKFE-NH2 [Example 1]”, at PrP^SC in ScN2a cells, the “anti-prion activity (PK-resistant PrP^SC level by western blot)” value is reported as “gradual decrease in the PrP^SC concentration as its concentration is increased” and the “concentration at which anti-prion activity is exhibited” value was at least 100 nM.
